Results: patent publication US9758537B2 (Achillion Pharmaceuticals, Inc., priority 2014, dated 2017)

Biological target: Human factor D (Homo sapiens (Human), UniProt P00746)
Test: Human Factor D Assay
Assay type: biochemical
Conditions: human factor D 80 nM, substrate Z-L-Lys-SBzl, DTNB, OD405
Description: Human factor D (purified from human serum, Complement Technology, Inc.) at 80 nM final concentration is incubated with test compound at various concentrations for 5 minutes at room temperature in 50 mM Tris, 1M NaCl, pH 7.5. A synthetic substrate Z-L-Lys-SBzl and DTNB (Ellman's reagent) are added to final concentrations of 10 μM each. The increase in color is recorded at OD405 nm in a microplate in kinetic mode over 30 minutes with 30 second time points in a […]. IC50 values are calculated by non-linear regression from the percentage of inhibition of complement factor D activity as a function of test compound concentration.

Chain of Human factor D (P00746 26-253): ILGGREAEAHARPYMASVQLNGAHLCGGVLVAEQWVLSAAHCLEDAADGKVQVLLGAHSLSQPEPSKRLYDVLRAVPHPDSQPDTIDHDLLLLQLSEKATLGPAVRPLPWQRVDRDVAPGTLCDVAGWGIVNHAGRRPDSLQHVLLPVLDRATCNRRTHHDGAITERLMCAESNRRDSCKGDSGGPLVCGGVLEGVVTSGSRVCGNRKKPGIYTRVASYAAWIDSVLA

Row | IC50 [µM] | SMILES
1 | > 10 | CC(=O)n1cc(NC(=O)[C@@H]2C[C@@H](F)CN2C(=O)NCc2cccc(Cl)c2F)c2ccccc21 [Compound 3, (2S,4R)-N2-(1-acetyl-1H-indol-3-yl)-N1-(3-chloro-2-fluorobenzyl)-4-fluoropyrrolidine-1,2-dicarboxamide]
2 | > 10 | CC(=O)n1cc(NC(=O)[C@@H]2C[C@H](F)CN2C(=O)NCc2cccc(Cl)c2F)c2ccccc21 [Compound 4, (2S,4S)-N2-(1-acetyl-1H-indol-3-yl)-N1-(3-chloro-2-fluorobenzyl)-4-fluoropyrrolidine-1,2-dicarboxamide]
3 | > 10 | CC(=O)n1cc(NC(=O)[C@@H]2C[C@H](F)CN2C(=O)NCc2ccccc2)c2ccccc21 [Compound 5, (2S,4S)-N2-(1-acetyl-1H-indol-3-yl)-N1-benzyl-4-fluoropyrrolidine-1,2-dicarboxamide]
4 | > 10 | NC(=O)n1cc(NC(=O)N2C[C@H](F)C[C@H]2C(=O)NS(=O)(=O)c2cccc(Cl)c2F)c2ccccc21 [Compound 6, (2S,4R)-N1-(1-carbamoyl-1H-indol-3-yl)-N2-(3-chloro-2-fluorophenylsulfonyl)-4-fluoropyrrolidine-1,2-dicarboxamide]
5 | > 10 | CC(=O)n1cc(NC(=O)N2C[C@H](F)C[C@H]2C(=O)NS(=O)(=O)c2cccc(Cl)c2F)c2ccccc21 [Compound 7, (2S,4R)-N1-(1-acetyl-1H-indol-3-yl)-N2-(3-chloro-2-fluorophenylsulfonyl) - 4-fluoropyrrolidine-1,2-dicarboxamide]
6 | > 10 | CC(=O)n1cc(NC(=O)[C@H]2CC(F)(F)CN2C(=O)NCc2cccc(Cl)c2F)c2ccccc21 [Compound 8, (R)-N2-(1-acetyl-1H-indol-3-yl)-N1-(3-chloro-2-fluorobenzyl)-4,4-difluoropyrrolidine-1,2-dicarboxamide]
7 | > 10 | CC(=O)n1cc(NC(=O)[C@H]2CCCN2C(=O)NCc2cccc(Cl)c2F)c2ccccc21 [Compound 9, (R)-N2-(1-acetyl-1H-indol-3-yl)-N1-(3-chloro-2-fluorobenzyl) pyrrolidine-1,2-dicarboxamide]
8 | > 10 | CC(=O)n1cc(NC(=O)[C@H]2CCCN2C(=O)Nc2cccc(OC(F)(F)F)c2F)c2ccccc21 [Compound 16, (R)-N2-(1-acetyl-1H-indol-3-yl)-N1-(2-fluoro-3-(trifluoromethoxy)phenyl)pyrrolidine-1,2-dicarboxamide]
9 | > 10 | CC(=O)n1cc(NC(=O)[C@H]2CC(F)(F)CN2C(=O)Cc2cccc(Cl)c2F)c2ccccc21 [Compound 17, (R)-N-(1-acetyl-1H-indol-3-yl)-1-(2-(3-chloro-2-fluorophenyl)acetyl)-4,4-difluoropyrrolidine-2-carboxamide]
10 | > 10 | COc1ccc2c(O[C@@H]3C[C@@H](C(=O)NCc4cccc(Cl)c4F)N(C(=O)Nc4cn(C(C)=O)c5ccccc45)C3)cc(-c3ccccc3)nc2c1 [Compound 19, (2S,4R)-N1-(1-acetyl-1H-indol-3-yl)-N2-(3-chloro-2-fluorobenzyl)-4-(7-methoxy-2-phenylquinolin-4-yloxy)pyrrolidine-1,2-dicarboxamide]
11 | > 10 | CC(=O)n1cc(NC(=O)Nc2cn(C(C)=O)c3ccccc23)c2ccccc21 [Compound 20, 1,3-bis(1-acetyl-1H-indol-3-yl)urea]
12 | > 10 | NC(=O)N1CC(NC(=O)[C@@H]2CCC[C@H]2C(=O)NCc2cccc(Cl)c2F)c2ccccc21 (stereo partly drawn) [Compound 26, (1R,2R)-N1-(1-carbamoylindolin-3-yl)-N2-(3-chloro-2-fluorobenzyl)cyclopentane-1,2-dicarboxamide]
13 | > 10 | NC(=O)n1cc(NC(=O)N2C[C@H](F)C[C@H]2Cn2cc(-c3ccc(F)cc3)nn2)c2ccccc21 [Compound 28, 3-((2S,4R)-4-fluoro-2-((4-(4-fluorophenyl)-1H-1,2,3-triazol-1-yl)methyl)pyrrolidine-1-carboxamido)-1H-indole-1-carboxamide]
14 | > 10 | NC(=O)N1C[C@H](F)C[C@H]1Cn1cc(-c2ccc(F)c(Cl)c2)nn1 [Compound 30, (2S,4R)-2-((4-(3-chloro-4-fluorophenyl)-1H-1,2,3-triazol-1-yl)methyl)-4-fluoropyrrolidine-1-carboxamide]
15 | > 10 | NC(=O)n1cc(NC(=O)C2=C(C(=O)NCc3cccc(Cl)c3F)CCC2)c2ccccc21 [Compound 31, N1-(1-carbamoyl-1H-indol-3-yl)-N2-(3-chloro-2-fluorobenzyl)cyclopent-1-ene-1,2-dicarboxamide]
16 | < 1 | N#Cc1cn(CC(=O)N2C[C@H](F)C[C@H]2C(=O)NCc2cccc(Cl)c2F)c2ccccc12 [Compound 36, (2S,4R)-N-(3-chloro-2-fluorobenzyl)-1-(2-(3-cyano-1H-indol-1-yl)acetyl)-4-fluoropyrrolidine-2-carboxamide]

Row | SMILES | IC50 [µM]
17 | CC(=O)c1cn(CC(=O)N2[C@H](C(=O)NCc3cccc(Cl)c3F)C[C@@H]3CCCC[C@@H]32)c2ccccc12 [Compound 1, (2S,3aS,7aS)-1-(2-(3-acetyl-1H-indol-1-yl)acetyl)-N-(3-chloro-2-fluorobenzyl)octahydro-1H-indole-2-carboxamide] | < 1
18 | CC(=O)c1cn(CC(=O)N2C[C@H](F)C[C@H]2c2ncc(-c3cccc(Cl)c3)[nH]2)c2ccccc12 [Compound 11, 2-(3-acetyl-1H-indol-1-yl)-1-((2S,4R)-2-(5-(3-chlorophenyl)-1H-imidazol-2-yl)-4-fluoropyrrolidin-1-yl)ethanone] | > 10
19 | CC(=O)c1cn(CC(=O)N2C[C@H](F)C[C@H]2c2nc3cc(Cl)ccc3[nH]2)c2ccccc12 [Compound 15, 2-(3-acetyl-1H-indol-1-yl)-1-((2S,4R)-2-(5-chloro-1H-benzo[d]imidazol-2-yl)-4-fluoropyrrolidin-1-yl)ethanone] | > 10
20 | CC(=O)c1cn(CC(=O)N2CC[C@@H](OCC3CC3)[C@H]2C(=O)NCc2cccc(Cl)c2F)c2ccccc12 [Compound 18, (2S,3R)-1-(2-(3-acetyl-1H-indol-1-yl)acetyl)-N-(3-chloro-2-fluorobenzyl)-3-(cyclopropylmethoxy) pyrrolidine-2-carboxamide] | < 1
21 | CC(=O)c1cn(CC(=O)N2C[C@H](F)[C@@H](OCC3CC3)[C@H]2C(=O)NCc2cccc(Cl)c2F)c2cc(O)ccc12 [Compound 21, (2S,3S,4S)-1-(2-(3-acetyl-6-hydroxy-1H-indol-1-yl)acetyl)-N-(3-chloro-2-fluorobenzyl)-3-(cyclopropylmethoxy)-4-fluoropyrrolidine-2-carboxamide] | < 1
22 | O=C(c1cn(CC(=O)N2[C@@H]3C[C@@H]3C[C@H]2C(=O)NCc2cccc(Cl)c2F)c2ccccc12)C1CC1 [Compound 22, (1R,3S,5R)-N-(3-chloro-2-fluorobenzyl)-2-(2-(3-(cyclopropanecarbonyl)-1H-indol-1-yl)acetyl)-2-azabicyclo[3.1.0]hexane-3-carboxamide] | < 1
23 | O=C(c1cn(CC(=O)N2C[C@H](F)C[C@H]2C(=O)NCc2cccc(Cl)c2F)c2ccccc12)C1CC1 [Compound 24, (2S,4R)-N-(3-chloro-2-fluorobenzyl)-1-(2-(3-(cyclopropanecarbonyl)-1H-indol-1-yl)acetyl)-4-fluoropyrrolidine-2-carboxamide] | < 1
24 | CC(=O)c1cn(CC(=O)N2CC(F)C(OCC3CC3)[C@H]2C(=O)NCc2cccc(Cl)c2F)c2cc(O)ccc12 (stereo partly drawn) [Compound 25, (2S)-1-(2-(3-acetyl-6-hydroxy-1H-indol-1-yl)acetyl)-N-(3-chloro-2-fluorobenzyl)-3-(cyclopropylmethoxy)-4-fluoropyrrolidine-2-carboxamide] | < 1
25 | CC(=O)c1cn(CC(=O)N2C[C@H](F)C[C@H]2Cn2cc(-c3ccc(F)cc3)nn2)c2ccccc12 [Compound 27, 2-(3-acetyl-1H-indol-1-yl)-1-((2S,4R)-4-fluoro-2-((4-(4-fluorophenyl)-1H-1,2,3-triazol-1-yl)methyl)pyrrolidin-1-yl)ethanone] | > 10
26 | COc1ccc2c(O[C@@H]3C[C@@H](C(=O)NCc4cccc(Cl)c4F)N(C(=O)Cn4cc(C(C)=O)c5ccccc54)C3)cc(-c3ccccc3)nc2c1 [Compound 29, (2S,4R)-1-(2-(3-acetyl-1H-indol-1-yl)acetyl)-N-(3-chloro-2-fluorobenzyl)-4-(7-methoxy-2-phenylquinolin-4-yloxy)pyrrolidine-2-carboxamide] | > 10
27 | CC(=O)c1cn(CC(=O)N2C[C@H](F)C[C@H]2C(=O)N2Cc3ccccc3C2)c2ccccc12 [Compound 33, 2-(3-acetyl-1H-indol-1-yl)-1-((2S,4R)-4-fluoro-2-(isoindoline-2-carbonyl)pyrrolidin-1-yl)ethanone] | > 10
28 | CC(=O)c1cn(CC(=O)N2C[C@H](F)C[C@H]2C(=O)N(C)Cc2cccc(Cl)c2F)c2ccccc12 [Compound 34, (2S,4R)-1-(2-(3-acetyl-1H-indol-1-yl)acetyl)-N-(3-chloro-2-fluorobenzyl)-4-fluoro-N-methylpyrrolidine-2-carboxamide] | > 10
29 | CC(=O)c1cn(CC(=O)N2[C@H](C(=O)NCc3cccc(Cl)c3F)C[C@@H]3CCCC[C@@H]32)c2cc(O)ccc12 [Compound 35, (2S,3aS,7aS)-1-(2-(3-acetyl-6-hydroxy-1H-indol-1-yl)acetyl)-N-(3-chloro-2-fluorobenzyl)octahydro-1H-indole-2-carboxamide] | < 1
30 | O=C1CCCc2c1c1ccccc1n2CC(=O)N1C[C@H](F)C[C@H]1C(=O)NCc1cccc(Cl)c1F [Compound 37, (2S,4R)-N-(3-chloro-2-fluorobenzyl)-4-fluoro-1-(2-(4-oxo-3,4-dihydro-1H-carbazol-9(2H)-yl)acetyl)pyrrolidine-2-carboxamide] | < 1
